Data from a compilation of properties of binary mixtures (doi:10.1007/s10953-013-9991-z).

Experiment: xn = mol fraction of the nth substance listed
Settings: 101 kPa

CNC=O + CC[n+]1ccn(C)c1.F[B-](F)(F)F
speed of sound [m/s]
Settings	293.15 K	298.15 K	303.15 K	308.15 K
x1 = 0.0661	1633.3	–	–	–
x1 = 0.0886	1633.3	1622.4	1611.3	1600.3
x1 = 0.1287	1633	1622.1	1610.8	–
x1 = 0.1757	1631.7	1619.5	1607.8	1596.1
x1 = 0.2258	1628	1615.8	1603.3	1590.7
x1 = 0.2783	1622.6	1609	1595.9	1583.5
x1 = 0.3287	–	1601.7	–	–
x1 = 0.3729	1608.1	1593	–	–
x1 = 0.4259	1597.9	1582.3	1567.3	1552.1
x1 = 0.4766	1585.5	1569.5	1554.2	1539.1
x1 = 0.5291	1572.2	–	1540.2	1524.6
x1 = 0.5749	1559.2	1543.2	–	1511.9
x1 = 0.6252	1543.5	1527.8	1513	1496.9
x1 = 0.6773	–	1511.9	1496.9	1480.7
x1 = 0.7281	1511.5	–	1482	–
x1 = 0.7744	1496.7	–	1467.9	1452.1
x1 = 0.8271	1481.1	–	1453	1437
x1 = 0.8782	1467.7	1453.9	–	–
x1 = 1	–	1431.9	1417.7	–

CC[n+]1ccn(C)c1.F[B-](F)(F)F + CN(C)C=O
speed of sound [m/s]
Settings	293.15 K	298.15 K	303.15 K	308.15 K
x2 = 0	1631	1619.4	1607.6	–
x2 = 0.0903	1625.1	1611.5	1598	1586
x2 = 0.1257	–	1609.6	1596	1583.1
x2 = 0.1717	1622.4	–	1594	–
x2 = 0.2275	1621.4	1606.7	1591.9	1577.6
x2 = 0.2781	1620.2	–	1590.4	1574.8
x2 = 0.3276	1618.1	1603.9	1589.2	1572.2
x2 = 0.3781	1615.6	1601	1586.1	1569.6
x2 = 0.4227	1612.9	1598.5	1583.6	1565.4
x2 = 0.4757	1607.8	–	1577.9	1560.5
x2 = 0.5258	–	1586.4	1571.3	1553.1
x2 = 0.5697	1593.8	1579.9	–	–
x2 = 0.6261	1582.9	1568.1	1552.6	1534.5
x2 = 0.6758	–	–	1541.3	1523.2
x2 = 0.7291	1558.1	–	1526.5	1508.1
x2 = 0.769	1546.4	–	1513.9	1496.7
x2 = 0.8268	1529.4	1512.2	1495.4	1478
x2 = 0.8789	–	1495.6	1478.4	1460.1

CN(C)C=O + CC[n+]1ccn(C)c1.F[B-](F)(F)F
x1 = 1
Settings	speed of sound [m/s]
293.15 K	1477.8
303.15 K	1440.3
308.15 K	1421

CC[n+]1ccn(C)c1.F[B-](F)(F)F + CNC=O
x2 = 0
Settings	speed of sound [m/s]
293.15 K	1631
298.15 K	1619.4
303.15 K	1607.6
308.15 K	1596.3
